Here are results for five molecules from publication PMC4426677, “Tubulin structure-based drug design for the development of novel 4β-sulfur-substituted podophyllum tubulin inhibitors with anti-tumor activity” (Scientific Reports, 2015).

In general, IC50 refers to the concentration that inhibits the measured activity by half. Broadly, the Kd is the equilibrium constant for the complex coming apart. The term GI50 denotes the concentration at which growth is held to half of that of the control.

The nature of series [1]: MTT cytotoxicity assay, normal human cells HL-7720. The format is cell-based. As to conditions: drug exposure 48 h, mean ± SD (n = 3), read-out: Cytotoxic activity (IC50) HL-7720. The protocol:
(§1) Cytotoxicity assays were performed on the human gastric carcinoma cell line BGC-823, the human lung adenocarcinoma cell line A549, the human hepatocellular liver carcinoma HepG2, and the normal human hepatic immortal cell line HL-7702. Cells (3500–13,000) were seeded into 96-well microtest plates in 100 μL of culture medium per well (Falcon, CA). The cells were treated in triplicate with a gradient concentration of test compounds and incubated at 37 °C in RPMI-1640 with 100 mg L^−1 kanamycin and 10% (v/v) fetal bovine serum in a humidified atmosphere containing 5% CO2 for 48 h. The plating efficiencies of the untreated cells varied between experiments with values ranging from 14 to 31% for the HL-7702 cells. For all cell lines, microculture tetrazolium [3-(4, 5-dimethylthiazol-2-yl)−2, 5-diphenyltetrazolium bromide, MTT; Sigma, St. Louis, MO] assay was performed to measure cytotoxic effects. […] The initial seeding densities varied among the cell lines to ensure a final absorbance reading in control (untreated) cultures within the range of 0.6–0.8 A492 units. […] Each test was performed in triplicate, and the absorbance readings between the triplicates varied by no more than 5%.
(§2) Data presented as means ± SD. Statistical analyses were performed by the analysis of variance (ANOVA). All statistical analyses were performed using Origin version 8.0 ([…], OriginLab Corp., Northampton, MA, USA). Sigmoidal dose responses and non-linear regression analyses were undertaken to identify half-maximal concentrations for each of the drugs. To evaluate differences in IC50 concentrations, analysis of variance combined with Tukey’s multiple range test was used.
On the technique in general: Formazan colour is commonly taken as a measure of viable cells.

The test system of series [2] is human hepatocellular liver carcinoma HepG2. In words: MTT cytotoxicity assay, HepG2. The format is cell-based. As to conditions: read-out: Cytotoxic activity (IC50) HepG2. On the procedure: as §1, §2
Series [3] concerns human lung adenocarcinoma cell line A549. In words: MTT cytotoxicity assay, A549. Format: cell-based. As to conditions: read-out: Cytotoxic activity (IC50) A549. The protocol:
as §1, §2

Series [4] relates to human gastric carcinoma cell line BGC-823. Description: MTT cytotoxicity assay, BGC-823. The format is cell-based. The settings on record: read-out: Cytotoxic activity (IC50) BGC-823. The protocol:
as §1, §2

Series [5] deals with A549 cells. Description: Cell cycle analysis (PI staining, flow cytometry). The format is cell-based, human. As to conditions: for G2/M phase arrest ratio: after 24 h incubation until end of incubation. On the procedure: Tubulin inhibitors block cell cycle progression in mitosis at the G2/M phase, and a prolonged mitotic arrest triggers various apoptotic pathways. […] After 24 h incubations, the G2/M phase arrest ratio remained at around 80% and 90% until the end of the incubation.
Cell cycle arrest detection in A549 cells using propidium iodide (PI) double staining treatment with different concentrations of 4-TG-PTOX (i.e., 0.1, 1, and 5 μM) for 6, 12, 24, 48 h, respectively. The A549 cell line was used for cell cycle analysis. Cells were treated in triplicate with a gradient concentration of test compounds and incubated at 37 °C in RPMI-1640 with 100 mg L^−1 kanamycin and 10% (v/v) fetal bovine serum in a humidified atmosphere containing 5% CO2 for 48 h. Untreated and drug-treated cells were centrifuged and fixed overnight in 70% ethanol at 4 °C. They were then washed three times with PBS, incubated for 1 h with 1 mg/ mL RNase A and […] propidium iodide at room temperature, and analyzed with a FACSCalibur flow cytometer (BD, USA).
For orientation: In flow cytometry, cells or beads pass a laser one at a time.

A further series deals with tubulin. Description: Surface plasmon resonance binding to immobilized tubulin. As to conditions: 1:1 Langmuir model, HBS-T buffer pH 7.4; read-out: equilibrium dissociation constant (KD value), SPR. On the procedure: (§3) The degree of tubulin polymerization was evaluated through pellet mass formation in centrifugation assays in the presence of stoichiometric and semi-stoichiometric concentrations of each lignan.
Based on the surface plasmon resonance (SPR) technology, the binding affinity of compounds to tubulin was determined with the ProteOn^TM XPR36 Protein Interaction Array System (Bio-Rad, Hercules, CA). For this purpose, tubulin was dissolved in 10 mM sodium acetate buffer (pH 3.5) and immobilized to the ProteOn^TM GLH sensor chip with the ProteOn^TM amine coupling kit. The final immobilization level was 8000 RU (Response unit). […] Data were analyzed with the ProteOn^TM Manager software, fitted to the 1:1 Langmuir model.
(In general: SPR reads the build-up and loss of mass on a sensor chip optically.)

The subject of series [6] is A549 cells. Description: Immunofluorescence staining of tubulin and nuclei. The format is cell-based, human. As to conditions: 1 μM, 12 hours. The protocol: as §3
Cells were fixed with 4% paraformaldehyde in phospate buffered saline (PBS), permeabilized with 0.5% Triton X-100 in PBS, and then tubulin was immunostained with monoclonal antibody to tubulin (B5-1-2, Sigma) followed by fluorescein 5-isothiocyanate (FITC) conjugated secondary antibody. Nuclei were labeled with 4′, 6-diamidino-2-phenylindole (DAPI). Fluorescence labeled tubulin and nuclei were observed using a Zeiss Axioplan fluorescence microscope, and images were captured by a XL16 Excel cooled digital camera controlled by the Dage Exponent software (Dage-MTI). Final images were prepared using Adobe Photoshop. The cells were then processed for immunofluoscence staining and confocal microscopy (× 600).

For the next series, the system named is calf brain tubulin. In words: Tubulin assembly inhibition, centrifugation assay. Format: biochemical. As to conditions: 30 min at 37 °C, read-out: GI50, inhibition of tubulin polymerization. The protocol: as §3
Purification of calf brain tubulin and chemicals were followed as previously described by Andreu[20]. Ligands were dissolved in DMSO at 20 mM and kept at −80 °C. Work solutions were done in DMSO and kept at −20 °C. The 50% inhibitory ligand concentration of tubulin assembly was determined with a centrifugation assay. Tubulin was equilibrated prior to use in 3.4 M glycerol, 1 mM EGTA, 0.1 mM GTP, pH 7.0, buffer through a 25 cm × 0.9 cm Sephadex G-25 column. Aggregates were removed by a centrifugation at 90000 g × 10 min in a TLA 120 rotor at 4 °C in an Optima TLX centrifuge. Tubulin concentration was determined as described by Andreu[21]. Tubulin was kept at 4 °C, and 0.9 mM GTP and 6 mM MgCl2 were added to the sample. The solution was distributed in 200 μL polycarbonate tubes for the TL100 rotor. […] Microtubules were separated from unassembled tubulin by a centrifugation at 90000 g × 10 min in a TLA100 rotor at 37 °C in an Optima TLX centrifuge. […] The 50% inhibitory ligand concentration of tubulin assembly was determined with a centrifugation assay that measured the decrease in the concentrations of microtubules assembled in the presence of different concentrations of the compound.

In series [7] the test system is A549 cells. Description: Cell apoptosis analysis (annexin V/PI flow cytometry). Format: cell-based, human. The settings on record: for maximum level of apoptosis: 48 h. The protocol:
After 48 h of treatment with 4-TG-PTOX, the maximum levels of apoptosis reached were 63% and 67% at 4-TG-PTOX concentrations of 1 and 5 µM, respectively.
Cell apoptosis-inducing detection in A549 cells treatment with different concentrations of 4-TG-PTOX (i.e., 0.1, 1, and 5 μM) for 6, 12, 24, 48 h, respectively. In the early stages of apoptosis, phosphatidylserine (PS) was translocated from the inside of the cell membrane to the outside. Annexin V, a calcium dependent phospholipid-binding protein associated with a high affinity for phosphatidylserine, was used to detect early apoptotic cells. Propidine Iodide (PI) was a red fluorescent dye and stained cells that had lost membrane integrity. So, cells stained with FITC-annexin V and PI were discriminated necrotic cells (Q1, Annexin-/PI +), late apoptotic cells (Q2, Annexin +/PI+), intact cells (Q3, Annexin -/PI -) and early apoptotic cells (Q4, Annexin+/PI -).

The mark [8] stands for this setting: HepG2, MTT, drug exposure 48 h, mean ± SD (n = 3).
The mark [9] stands for this setting: A549, MTT, drug exposure 48 h, mean ± SD (n = 3).
[10] abbreviates: BGC-823, MTT, drug exposure 48 h, mean ± SD (n = 3).

“Also recorded” adds a separate entry of the source. Like-named read-outs stand apart in the source and are kept apart here. Where only a bound is given, the exact number is not on record here.

On to `COC(=O)Nc1nc2ccc(C(=O)c3cccs3)cc2[nH]1` [Nocodazole, nocodazole], for which the IC50 at 48 h in series [1] was 8.51 ± 1.73 µM. The IC50 came out at 18.4 ± 3.71 µM in series [2] (HepG2, 48 h); 27.4 ± 2.92 µM in [3] (A549, 48 h); 38.9 ± 3.12 µM in [4] (BGC-823, 48 h).

`COc1cc(C2c3cc4c(cc3C(Sc3nc(N)nc5nc[nH]c35)C3COC(=O)C23)OCO4)cc(OC)c1OC` (centres unmarked) [Compound 4-TG-PTOX]: the IC50 at 48 h in series [1] was determined as 13.5 ± 2.41 µM. The G2/M phase arrest result in the series with A549 cells [5] (A549, 0.1 μM) was “arrested after 12 h and strongly arrested after 24 and 48 h”. Moreover, the “G2/M phase arrest ratio” value in the series with A549 cells [5] (A549, 1 μM) is listed as “around 80%”; with A549 cells [5] (A549, 5 μM), around 90%. Also, the IC50 in [2] (setting [8]) came out at 0.3 ± 0.34 µM; in series [3] (setting [9]), 0.57 ± 0.92 µM; in [4] (setting [10]), 4.4 ± 1.55 µM. Further, the Kd at tubulin came out at 6.2 µM. The “effect on cellular microtubules (immunofluorescence)” value (“effect on cellular microtubules” for short) in the series on A549 cells [6] is given as “anti-microtubule activity was observed; also recorded: inhibited tubulin polymerization”. The “effect on nucleus (DAPI)” value with A549 cells [6] is on record as “not damaged”. The GI50 in the series with calf brain tubulin is below 1 µM. Also, in the series with A549 cells [7] (A549, 0.1 μM), the “ratio of apoptotic cells” value is “unaffected”. Also, the “maximum level of apoptosis” value was 63% with A549 cells [7] (A549, 1 µM) and 67% in the series on A549 cells [7] (A549, 5 µM).

Take `COc1cc([C@@H]2c3cc4c(cc3[C@H](O)[C@H]3COC(=O)[C@H]23)OCO4)cc(OC)c1OC` [PTOX, podophyllotoxin]: the IC50 at 48 h in [1] was found to be 4.31 ± 1.46 µM. Further, the IC50 in series [2] (setting [8]) was 8.36 ± 1.42 µM; in [3] (setting [9]), 20.2 ± 2.75 µM; in series [4] (setting [10]), 18.3 ± 2.22 µM.

As to `COc1cc2c(c(OC)c1OC)-c1ccc(OC)c(=O)cc1[C@@H](NC(C)=O)CC2` [Colchicines, colchicine], the IC50 at 48 h in series [1] was 6.42 ± 1.03 µM. For the same molecule, the IC50 worked out at 13.2 ± 0.88 µM in series [2] (setting [8]), 12.2 ± 0.76 µM in [3] (setting [9]) and 12.2 ± 1.26 µM in [4] (setting [10]). Moreover, in the series on A549 cells [6], the “effect on cellular microtubules” value is “inhibited tubulin polymerization”.

As for `COc1cc(C2c3cc4c(cc3C(Sc3ncnc5nc[nH]c35)C3COC(=O)C23)OCO4)cc(OC)c1OC` (centres unmarked) [Compound 4-MP-PTOX], the IC50 at 48 h in series [1] stood at 11.3 ± 0.57 µM. In addition, the figures for the IC50 in series [2] (setting [8]), in [3] (setting [9]) and in series [4] (setting [10]) were 1.14 ± 1.07 µM, 1.12 ± 0.35 µM and 8.72 ± 3.15 µM, respectively. Besides, the Kd on tubulin was 8.7 µM. For the same molecule, in the series with A549 cells [6], the “effect on cellular microtubules” value is listed as “anti-microtubule activity was observed; also recorded: inhibited tubulin polymerization”. In addition, the “effect on nucleus (DAPI)” value in the series on A549 cells [6] is “not damaged”. The GI50 in the series on calf brain tubulin is below 2 µM.
